From US20080207750A1, “Use of N-Chlorotaurine for Treatment of Oozing Tissue Deficiencies” (Pathogenics LLC, priority 2002, published 2008) come the findings set out here.

One data set concerns oozing ear channel. Description: Treatment of the oozing ear channel after tympanoplasty with aqueous 1% NCT solution (case reports). The class given is in vivo, human. The settings on record: for time until oozing ceased / complete epithelization achieved earlier than by the conventional treatment with fuchsine / incorporation of the temporal fascia: tympanoplasty. From the text: Rinsing the ear channel with NCT solution provokes in general a drying of the ear channel and the tympanoplastic within 1-2 days.
A human patient with a traumatic perforation of the tympanic membrane was provided with a tympanoplasty. After removing incrustations and granulation tissue, the destroyed tympanic membrane was excised and substituted by a fascia temporalis. After taking away the tamponade, the microbiological culture of a swab from the reconstructed tympanic membrane and the ear channel was sterile. Subsequently, the oozing ear channel was treated one time daily for two days by instillation of 2 mL of aqueous 1% NCT solution. […] The complete epithelization was achieved 3 days earlier than by the conventional treatment with fuchsine.
A human patient suffering from a perforation of the tympanic membrane caused by a chronic inflammation of the middle ear received tympanoplasty. After removing incrustations and granulation tissue, the destroyed tympanic membrane was excised and substituted by a fascia temporalis. After taking away the tamponade, the microbiological culture of a swab from the reconstructed tympanic membrane and the ear channel was sterile. Subsequently, the oozing and swollen ear channel was treated one time daily for five days by instillation of 2 mL of aqueous 1% NCT solution. […] The complete epithelization was achieved 3 days earlier than by the conventional treatment with fuchsine.

The subject of data set [1] is open leg ulcer with fibrous coating. Briefly: Treatment of open leg ulcer with fibrous coating with wound dressing soaked with aqueous 1% NCT solution. It is filed as in vivo, human. The following applies: Example 3: person, burn accident; dressing soaked with aqueous 1% NCT two times daily. The protocol:
A human patient suffering from an open leg ulcer with fibrous coating caused by a burn accident was treated two times daily with wound dressing soaked with aqueous 1% NCT solution. […] Microbiological cultures of swabs before and after therapy were sterile.

A short description of data set [2]: pH of aqueous solutions of NCT. It is filed as physicochemical. As for the experimental part:
(§1) Reagents: Pure NCT as a crystalline sodium salt was dissolved in sterile distilled water to a concentration of 1% (55 mM). Purity was verified by iodometric titration and spectrophotometry. […] Solutions were stored at 2-4° C., where they are stable for 1 year, and allowed to reach room temperature before application to the patients.

Data set [3] can be described thus: Storage stability of aqueous NCT solutions. It is filed as physicochemical. The settings on record: 1% (55 mM) aqueous solution stored at 2-4° C. As for the experimental part: as §1
In a further data set the test system is outer ear canal. Description: Pilot study (open phase IIa): irrigation of the external auditory canal with 1% NCT after tympanoplasty. The class given is in vivo, human. The settings on record: 12 patients. The protocol:
Procedures: Local irrigations of the external auditory canal with 3 ml of 1% N-chlorotaurine solution were performed once daily until the canal was dry.
as §1
Study Design: An open phase IIa study was performed in 12 patients after tympanoplasty. They received a single-shot antibiotic therapy with 2 g Spizef (cefotiam) i.v. perioperatively.
All subjects were treated with 1% N-chlorotaurine.
Subjects: The study population included 6 female and 6 male human patients, ranging in age from 32 to 66 years (median 48,1 years). Inclusion criteria was status post tympanoplasty. Exclusion criteria included topical treatment with other agents, systemic application of antibiotics or corticoids, pregnancy, and simultaneous participation in another study. No patients had to be withdrawn after inclusion.
Treatment and Time Course: After removing the ear-tamponade, which remained in place for 2 to 3 weeks postoperatively, 3 ml of the 1% aqueous NCT solution was applied once daily to the outer ear canal. The endpoint of the treatment was defined as a completely dry canal, corresponding to a clinical score of zero (see below for scoring).
Evaluation and Statistical Analysis: The primary criterion for the judgement of the status of the external meatus was a six-scale clinical score (0-5) based on visual observation via ear microscopy (zero=dry outer ear canal; 5=moist outer ear canal with inflammation).
The second criterion was subjective pain, ascertained by a visual analogue scale.
Clinical examination of the outer ear canal was performed daily for detection of moisture, signs of infection, and judgement of epithelisation of the neo-tympanon.
A completely dry external meatus (score zero) was considered as the endpoint criterion for the termination of the study.
Before and at the end of the study an audiogram was performed in all patients.
Moisture and inflammation of the external auditory canal during and after irrigation with NCT were compared to those before treatment using the Wilcoxon test. P-values<0.05 were considered to indicate statistical significance. Due to the limited number of patients no corrections for multiple comparisons were applied.

The mark [4] stands for this setting: Example 1: person, 2 mL aqueous 1% NCT one time daily for two days.
[5] abbreviates: Example 2: person, 2 mL aqueous 1% NCT one time daily for five days.
[6] abbreviates: 3 ml 1% NCT once daily, score zero = dry outer ear canal.

For the molecule `O=S(=O)(O)CCNCl` [NCT, N-chlorotaurine], the “time until oozing ceased” value in the data set with oozing ear channel (Example 1: person, 2 mL aqueous 1% NCT instilled one time daily for two days) was “one”. In the data set on oozing ear channel (setting [4]), the “complete epithelization achieved earlier than by the conventional treatment with fuchsine” value stood at 3 days and the “incorporation of the temporal fascia” value is listed as “proceeded without problems”. Besides, the “time until oozing ceased” value with oozing ear channel (Example 2: person, 2 mL aqueous 1% NCT instilled one time daily for five days) is recorded as “three”. Besides, in the data set on oozing ear channel (setting [5]), the “complete epithelization achieved earlier than by the conventional treatment with fuchsine” value is on record as 3 days and the “incorporation of the temporal fascia” value was “proceeded without problems”. In the data set with oozing ear channel (rinsing the ear channel with NCT solution, in general), the “drying of the ear channel and the tympanoplastic” value was 1 to 2 days. For the same molecule, in data set [1], the healing process entry is reported as “went on without problems” and the “treatment time until the fibrous coating disappeared” value was “three”. Besides, the pH in data set [2] was 8. Further, the “stability of solutions on storage” value in data set [3] was 1 year. Also, in the data set with outer ear canal (3 ml 1% NCT once daily), the dizziness or nystagmus entry is recorded as “No dizziness or nystagmus occurred”, the “drying of the outer ear canal” value was “Rapid drying of the outer ear canal was detected in all patients”, the “epithelisation of the new tympanon on ear microscopy” value is on record as “proceeded regularly without granulation” and the “infection in the postoperative course” value was “No infection occurred”. For the same molecule, in the data set on outer ear canal (3 ml 1% NCT once daily), the “time needed for complete epithelisation (mean±SD)” value was 22.6 ± 3.5 days, the “time needed for complete epithelisation (range)” value is 18 to 31 days and the tolerability of treatment result is “tolerated very well by all patients”. The “average clinical score (0-5) of the outer ear canal” value in the data set on outer ear canal (3 ml 1% NCT once daily, days 2-5 vs. baseline day 1, Wilcoxon test) was “decreased daily”. Moreover, in the data set on outer ear canal (setting [6]), the “necessary time for achieving a score of zero (mean±SD)” value was found to be 2.75 ± 0.87 days and the “necessary time for achieving a score of zero (range)” value lay in the range of 2 to 5 days. Also, the subjective pain entry with outer ear canal (3 ml 1% NCT once daily, visual analogue scale) is given as “without occurrence of any pain”. For the same molecule, in the data set on outer ear canal (audiogram before and after treatment), the “damage to the inner ear” value was “no signs of damage to the inner ear”. Further, the allergic reactions result in the data set with outer ear canal (whole period of treatment) is listed as “no signs of allergic reactions”.
